From patent US9783537B2, “3-(4-ethylnylphenyl) pyridopyrimidinone compounds and process for preparation thereof useful as potential anticancer agents” (Council of Scientific & Industrial Research, priority 2013, dated 2017)
Where two headings read alike, the source gives them in different places.

Key:
[1] = system: seven colon cancer cell line (COLO 205, HCC-2998, HCT-116, HCT-15, HT29, KM12 and SW-620); assay: in vitro anticancer activity, colon panel; assay type: cell-based; conditions: Homo sapiens; seven colon cancer cell lines, exposure at least 48 h; read-out: GI50, range over panel
[2] = system: six breast cancer cell line (MCF-7, MDA-MB-231/ATCC, HS 578T, TD-47D, MDA-MB-468 and BT-549); assay: in vitro anticancer activity, breast panel; assay type: cell-based; conditions: Homo sapiens; six breast cancer cell lines, exposure at least 48 h; read-out: GI50, range over panel
OVCAR-3 = assay: SRB 48 h growth assay, Ovarian OVCAR-3; assay type: cell-based, human; conditions: OVCAR-3, Ovarian
[3] = system: seven ovarian cancer cell lines (IGROV1, OVCAR-3, OVCAR-4, OVCAR-5, OVCAR-8, NCI/ADR-RES and SK-OV-3); assay: in vitro anticancer activity, ovarian panel; assay type: cell-based; conditions: Homo sapiens, exposure at least 48 h, read-out: GI50, range over panel
KM12 = assay: SRB 48 h growth assay, Colon KM12; assay type: cell-based, human
[4] = in vitro anticancer activity, non-small cell lung panel; assay type: cell-based; conditions: Homo sapiens; nine non-small cell lung cancer cell lines, exposure at least 48 h; read-out: GI50, range over panel
HOP-92 = assay: SRB 48 h growth assay, Non-small Cell Lung HOP-92; assay type: cell-based, human; conditions: HOP-92, Non-small Cell Lung
NCI/ADR-RES = assay: SRB 48 h growth assay, Ovarian NCI/ADR-RES; assay type: cell-based, human
HCT-116 = assay: SRB 48 h growth assay, Colon HCT-116; assay type: cell-based, human; conditions: HCT-116, Colon
MCF7 = assay: SRB 48 h growth assay, Breast MCF7; assay type: cell-based, human
HOP-62 = assay: SRB 48 h growth assay, Non-small Cell Lung HOP-62; assay type: cell-based, human; conditions: HOP-62, Non-small Cell Lung
786-0 = assay: SRB 48 h growth assay, Renal 786-0; assay type: cell-based, human; conditions: 786-0, Renal
TK-10 = assay: SRB 48 h growth assay, Renal TK-10; assay type: cell-based, human; conditions: TK-10, Renal
PC-3 = assay: SRB 48 h growth assay, Prostate PC-3; assay type: cell-based, human; conditions: PC-3, Prostate
SK-MEL-5 = assay: SRB 48 h growth assay, Melanoma SK-MEL-5; assay type: cell-based, human; conditions: SK-MEL-5, Melanoma
UACC-257 = assay: SRB 48 h growth assay, Melanoma UACC-257; assay type: cell-based, human; conditions: UACC-257, Melanoma
MDA-MB-435 = assay: SRB 48 h growth assay, Melanoma MDA-MB-435; assay type: cell-based, human; conditions: MDA-MB-435, Melanoma
BT-549 = assay: SRB 48 h growth assay, Breast BT-549; assay type: cell-based, human; conditions: BT-549, Breast
[5] = in vitro anticancer activity, melanoma panel; assay type: cell-based; conditions: Homo sapiens; nine melanoma cell lines, exposure at least 48 h; read-out: GI50, range over panel
HS578T = assay: SRB 48 h growth assay, Breast HS578T; assay type: cell-based, human
LOX IMVI = assay: SRB 48 h growth assay, Melanoma LOX IMVI; assay type: cell-based, human
ACHN = assay: SRB 48 h growth assay, Renal ACHN; assay type: cell-based, human
NCI-H23 = assay: SRB 48 h growth assay, Non-small Cell Lung NCI-H23; assay type: cell-based, human; conditions: for GI50: Homo sapiens
[6] = system: six leukemia cancer cell lines (CCRF-CEM, HL-60, K-562, MOLT-4, SR and RPMI-8226); assay: in vitro anticancer activity, leukemia panel; assay type: cell-based; conditions: Homo sapiens, exposure at least 48 h, read-out: GI50, range over panel
CCRF-CEM = assay: SRB 48 h growth assay, Leukemia CCRF-CEM; assay type: cell-based, human
SK-OV-3 = assay: SRB 48 h growth assay, Ovarian SK-OV-3; assay type: cell-based, human; conditions: SK-OV-3, Ovarian
NCI-H522 = assay: SRB 48 h growth assay, Non-small Cell Lung NCI-H522; assay type: cell-based, human
[7] = Homo sapiens, read-out: Growth Inhibition GI50
[8] = Homo sapiens, read-out: Log10 GI50 (converted)
[9] = Homo sapiens, read-out: Log10 LC50 (converted)

Compound: C#Cc1ccc(-n2c(/C=C/c3cc(OC)c(OC)c(OC)c3)nc3ncccc3c2=O)cc1 [4q, (E)-3-(4-Ethynylphenyl)-2-(3,4,5-trimethoxystyryl)pyrido[2,3-d]pyrimidin-4(3H)-one]
- GI50 [1]: 1.64 to 2.23 µM
- GI50 [2]: 1.51 to 3.46 µM
- GI50 (OVCAR-3; [7]): 2.33 µM
- GI50 (OVCAR-3; [8]): 2.34 µM
- CC50 (OVCAR-3; [9]): > 100 µM
- Log10 TGI50 (OVCAR-3): −5.19
- GI50 [3]: 1.67 to 3.61 µM
- Log10 TGI50 (KM12): −4.89
- GI50 (KM12; [7]): 3.32 µM
- GI50 (KM12; [8]): 3.31 µM
- CC50 (KM12; [9]): > 100 µM
- GI50 [4]: 1.32 to 3.9 µM
- Log10 TGI50 (HOP-92): −5.11
- GI50 (HOP-92; [7]): 2.31 µM
- GI50 (HOP-92; [8]): 2.29 µM
- CC50 (HOP-92; [9]): > 100 µM
- Log10 TGI50 (NCI/ADR-RES): −4.46
- GI50 (NCI/ADR-RES; [7]): 3.61 µM
- GI50 (NCI/ADR-RES; [8]): 3.63 µM
- CC50 (NCI/ADR-RES; [9]): > 100 µM
- Log10 TGI50 (HCT-116): >−4.00
- GI50 (HCT-116; [7]): 5.17 µM
- GI50 (HCT-116; [8]): 5.13 µM
- CC50 (HCT-116; [9]): > 100 µM
- Log10 TGI50 (MCF7): >−4.00
- GI50 (MCF7; [7]): 3.17 µM
- GI50 (MCF7; [8]): 3.16 µM
- CC50 (MCF7; [9]): > 100 µM
- Log10 TGI50 (HOP-62): >−4.00
- GI50 (HOP-62; [7]): 13.3 µM
- GI50 (HOP-62; [8]): 13.2 µM
- CC50 (HOP-62; [9]): > 100 µM
- Log10 TGI50 (786-0): >−4.00
- GI50 (786-0; [7]): 5.31 µM
- GI50 (786-0; [8]): 5.25 µM
- CC50 (786-0; [9]): > 100 µM
- GI50 (TK-10; [7]): 17.3 µM
- GI50 (TK-10; [8]): 17.4 µM
- CC50 (TK-10; [9]): > 100 µM
- Log10 TGI50 (TK-10): −4.20
- GI50 (PC-3; [7]): 3.96 µM
- GI50 (PC-3; [8]): 3.98 µM
- CC50 (PC-3; [9]): > 100 µM
- Log10 TGI50 (PC-3): >−4.00
- GI50 (SK-MEL-5; [7]): 1.78 µM
- GI50 (SK-MEL-5; [8]): 1.78 µM
- CC50 (SK-MEL-5; [9]): 18.2 µM
- Log10 TGI50 (SK-MEL-5): −5.36
- GI50 (UACC-257; [7]): 9.74 µM
- GI50 (UACC-257; [8]): 9.77 µM
- CC50 (UACC-257; [9]): > 100 µM
- Log10 TGI50 (UACC-257): >−4.00
- GI50 (MDA-MB-435; [7]): 1.98 µM
- GI50 (MDA-MB-435; [8]): 2 µM
- CC50 (MDA-MB-435; [9]): 97.7 µM
- Log10 TGI50 (MDA-MB-435): −5.27
- Log10 TGI50 (BT-549): −5.00
- GI50 (BT-549; [7]): 2.99 µM
- GI50 (BT-549; [8]): 3.02 µM
- CC50 (BT-549; [9]): > 100 µM
- GI50 [5]: 1.49 to 2.27 µM
- Log10 TGI50 (HS578T): −4.64
- GI50 (HS578T; Homo sapiens, Hs-578T, read-out: Growth Inhibition GI50): 3.67 µM
- GI50 (HS578T; Homo sapiens, Hs-578T, read-out: Log10 GI50 (converted)): 3.63 µM
- CC50 (HS578T; Homo sapiens, Hs-578T, read-out: Log10 LC50 (converted)): > 100 µM
- Log10 TGI50 (LOX IMVI): −4.19
- GI50 (LOX IMVI; [7]): 4.61 µM
- GI50 (LOX IMVI; [8]): 4.57 µM
- CC50 (LOX IMVI; [9]): > 100 µM
- Log10 TGI50 (ACHN): >−4.00
- GI50 (ACHN; [7]): 6.63 µM
- GI50 (ACHN; [8]): 6.61 µM
- CC50 (ACHN; [9]): > 100 µM
- Log10 TGI50 (NCI-H23): >−4.00
- GI50 (NCI-H23; read-out: Growth Inhibition GI50): 17.3 µM
- GI50 (NCI-H23; read-out: Log10 GI50 (converted)): 17.4 µM
- GI50 [6]: 1.39 to 3.01 µM
- Log10 TGI50 (CCRF-CEM): >−4.00
- CC50 (CCRF-CEM; Homo sapiens, CCKF-CEM, read-out: Log10 LC50 (converted)): > 100 µM
- GI50 (CCRF-CEM; [7]): 4.9 µM
- GI50 (CCRF-CEM; [8]): 4.9 µM
- GI50 (SK-OV-3; [7]): 5.33 µM
- GI50 (SK-OV-3; [8]): 5.37 µM
- CC50 (SK-OV-3; [9]): > 100 µM
- Log10 TGI50 (SK-OV-3): −4.11
- Log10 TGI50 (NCI-H522): −5.20
- GI50 (NCI-H522; [7]): 2.33 µM
- GI50 (NCI-H522; [8]): 2.34 µM
- CC50 (NCI-H522; [9]): 66.1 µM
